24 compounds from ChEMBL document CHEMBL1130466, “Benzothiazol-2-ylcarboxylic acids with diverse spacers: A novel class of potent, orally active aldose reductase inhibitors” (Bioorg Med Chem Lett, 1997) can be followed below.

Assay [1] addresses Aldo-keto reductase family 1 member B1 (Sus scrofa, UniProt P80276). Put plainly: Inhibitory concentration against porcine lens aldose reductase (AR) with DL-glyceraldehyde as the substrate.
Assay [2] has as its system Rattus norvegicus. Put plainly: Inhibition of sorbitol accumulation in the sciatic nerve in diabetic rats at peroral dose of 30 mg/kg (curative effect). It counts as functional. The note with it: route oral.
Assay [3] has as its system Rattus norvegicus. Put plainly: Inhibition of sorbitol accumulation in the lens in diabetic rats at peroral dose of 30 mg/kg (curative effect). It counts as functional. The note with it: Lens of camera-type eye, route oral.
Assay [4] concerns the target Aldo-keto reductase family 1 member B1 (Sus scrofa) (UniProt P80276). Put plainly: In vitro percent inhibition of porcine lens aldose reductase (AR) at 10e -7 M with DL-glyceraldehyde as the substrate.
Assay [5] has as its system Rattus norvegicus. Put plainly: Percent inhibition of sorbitol accumulation in the lens of streptozotocin (STZ)-induced diabetic rats at peroral dose of 30 mg/kg (preventive effect). It is filed as functional. The note with it: Lens of camera-type eye, route oral.
Assay [6] has as its system Rattus norvegicus. Put plainly: Percent inhibition of sorbitol accumulation in the sciatic nerve of streptozotocin (STZ)- induced diabetic rats at peroral dose of 30 mg/kg (preventive effect). It counts as functional. The note with it: route oral.
Assay [7] deals with Rattus norvegicus. Put plainly: Percent inhibition of sorbitol accumulation in the sciatic nerve of streptozotocin (STZ)- induced diabetic rats at peroral dose of 30 mg/kg (curative effect). The note with it: route oral. It counts as functional.
For assay [8], the system named is Rattus norvegicus. Put plainly: Percent inhibition of sorbitol accumulation in the lens of streptozotocin (STZ)-induced diabetic rats at peroral dose of 30 mg/kg (curative effect). It counts as functional. The note with it: Lens of camera-type eye, route oral.

One may read the IC50 as the point on the concentration scale where inhibition reaches its midpoint. The term ED50 denotes the dose that gives a 50% effect, or the effect in half of the subjects. Lower therefore signals greater potency. One may read the inhibition as how much of the control response was suppressed. A lower inhibition goes with a response near the control. What is called inhibition in vivo is the change of the read-out against control, counted positive when it falls.

The structures appear in SMILES notation.

As for `O=C(O)Cc1cc(Cl)cc(Cc2nc3c(F)c(F)cc(F)c3s2)c1`, the IC50 in assay [1] came out at 7 nM. The figures for the ED50 with Rattus norvegicus [2] and with Rattus norvegicus [3] were 0.46 mg/kg and 7.8 mg/kg, respectively.

In assay [4], `O=C(O)CCCCCc1nc2c(F)c(F)cc(F)c2s1` returned an inhibition of 71%. For the same compound, the IC50 in assay [1] is 50 nM.

As for `O=C(O)CN(CCc1ccccc1)C(=O)CCc1nc2c(F)c(F)cc(F)c2s1`, the inhibition in vivo at 30 mg/kg was -2% with Rattus norvegicus [5] and 65% with Rattus norvegicus [6].

In turn, `O=C(O)CCCc1nc2c(F)c(F)cc(F)c2s1` showed an inhibition in assay [4] of 1%.

Regarding `CN(CC(=O)O)C(=O)CCc1nc2c(F)c(F)cc(F)c2s1`, the inhibition in vivo at 30 mg/kg amounted to 30% in the assay on Rattus norvegicus [5] and 61% in the assay on Rattus norvegicus [6].

`O=C(O)Cc1cccc(Cc2nc3c(F)c(F)cc(F)c3s2)c1`: the ED50 in the assay with Rattus norvegicus [2] was 1.5 mg/kg; in the assay on Rattus norvegicus [3], above 10 mg/kg.

For `O=C(O)Cn1c(=O)n(Cc2ccc(Br)cc2F)c(=O)c2ccc(Cl)cc21` [ZENARESTAT], the inhibition in vivo at 30 mg/kg was 76% in the assay on Rattus norvegicus [7], 30% in the assay on Rattus norvegicus [5], 21% in the assay with Rattus norvegicus [8] and 89% in the assay on Rattus norvegicus [6]. The compound further came in with an IC50 in assay [1] of 12 nM.

On to `CN(CC(=O)O)C(=S)CCc1nc2c(F)c(F)cc(F)c2s1`, for which the inhibition in vivo at 30 mg/kg in the assay with Rattus norvegicus [5] turned out to be 58%; in the assay on Rattus norvegicus [6], 48%.

As for `Cc1cc(CC(=O)O)cc(Cc2nc3c(F)c(F)cc(F)c3s2)c1`, the ED50 came to 0.25 mg/kg with Rattus norvegicus [2] and 1.6 mg/kg in the assay on Rattus norvegicus [3].

As for `O=C(O)Cc1cc(Cc2nc3c(F)c(F)cc(F)c3s2)cc(C(=O)O)c1`, the ED50 in the assay with Rattus norvegicus [2] and with Rattus norvegicus [3] was above 10 mg/kg each time.

With `O=C(O)Cc1cc(Br)cc(Cc2nc3c(F)c(F)cc(F)c3s2)c1`, the ED50 is 0.68 mg/kg with Rattus norvegicus [2] and 9.8 mg/kg in the assay on Rattus norvegicus [3].

`CN(C)c1cc(CC(=O)O)cc(Cc2nc3c(F)c(F)cc(F)c3s2)c1.Cl` gave a half-maximal inhibitory concentration (IC50) in assay [1] of 12 nM. Further, the ED50 with Rattus norvegicus [2] was 0.53 mg/kg; in the assay with Rattus norvegicus [3], above 10 mg/kg.

`O=C(O)Cc1cc(F)cc(Cc2nc3c(F)c(F)cc(F)c3s2)c1` displayed an IC50 in assay [1] of 8.8 nM. Besides, the results for the ED50 with Rattus norvegicus [2] and with Rattus norvegicus [3] were 0.32 mg/kg and 10 mg/kg, respectively.

For the compound `O=C(O)CC1Sc2ccccc2N(Cc2nc3c(F)c(F)cc(F)c3s2)C1=O` (stereo not drawn), the ED50 with Rattus norvegicus [2] was 1.8 mg/kg; in the assay with Rattus norvegicus [3], above 10 mg/kg.

Take `O=C(O)CN(C(=S)CCc1nc2c(F)c(F)cc(F)c2s1)c1ccccc1`: the inhibition in vivo at 30 mg/kg was 12% in the assay with Rattus norvegicus [5] and below 64% in the assay with Rattus norvegicus [6].

Compound `COc1ccc2c(C(=S)N(C)CC(=O)O)cccc2c1C(F)(F)F` [TOLRESTAT] registered an IC50 in assay [1] of 16 nM. Moreover, the figures for the inhibition in vivo at 30 mg/kg in the assay on Rattus norvegicus [5] and in the assay on Rattus norvegicus [6] were 36% and 84%, respectively.

Take `O=C(O)CN(C(=O)CCc1nc2c(F)c(F)cc(F)c2s1)c1ccccc1`: the inhibition in vivo at 30 mg/kg was 80% in the assay with Rattus norvegicus [5] and 54% in the assay on Rattus norvegicus [6].

`O=C(O)Cc1ccc(Cc2nc3c(F)c(F)cc(F)c3s2)cc1` returned an IC50 in assay [1] of 38 nM.

As for `O=C(O)CCCCc1nc2c(F)c(F)cc(F)c2s1`, in assay [4], the inhibition was determined as 35%.

Consider `O=C(O)Cc1cccc(Cc2nc3c(F)c(F)cc(F)c3s2)c1Cl`, for which the IC50 in assay [1] came out at 9.3 nM. Besides, the figures for the ED50 in the assay with Rattus norvegicus [2] and in the assay with Rattus norvegicus [3] were 0.12 mg/kg and 0.71 mg/kg, respectively.

For the compound `O=C(O)CN(Cc1ccccc1)C(=S)CCc1nc2c(F)c(F)cc(F)c2s1`, the inhibition in vivo at 30 mg/kg in the assay on Rattus norvegicus [5] stood at 23%; in the assay with Rattus norvegicus [6], 65%.

`O=C(O)CN(Cc1ccccc1)C(=O)CCc1nc2c(F)c(F)cc(F)c2s1`: the inhibition in vivo at 30 mg/kg in the assay with Rattus norvegicus [5] amounted to 54%; with Rattus norvegicus [6] it was 75%.

As for `O=C(O)CCCCCCc1nc2c(F)c(F)cc(F)c2s1`, in assay [4], the inhibition came to 11%.

For the compound `O=C(O)Cc1cc(I)cc(Cc2nc3c(F)c(F)cc(F)c3s2)c1`, half-maximal inhibition in assay [1] (IC50) was put at 11 nM. In addition, the ED50 in the assay on Rattus norvegicus [2] and in the assay on Rattus norvegicus [3] was above 10 mg/kg in each case.
